Assay [1] addresses T1, jack bean urease (Canavalia ensiformis, UniProt P07374). The assay is described as follows: % urease inhibition assay and IC50. It counts as biochemical.
For assay [2], the target named is T1, jack bean urease. The assay is described as follows: urease enzyme kinetics study. It counts as biochemical.

T1 sequence (P07374 whole entry, looked up): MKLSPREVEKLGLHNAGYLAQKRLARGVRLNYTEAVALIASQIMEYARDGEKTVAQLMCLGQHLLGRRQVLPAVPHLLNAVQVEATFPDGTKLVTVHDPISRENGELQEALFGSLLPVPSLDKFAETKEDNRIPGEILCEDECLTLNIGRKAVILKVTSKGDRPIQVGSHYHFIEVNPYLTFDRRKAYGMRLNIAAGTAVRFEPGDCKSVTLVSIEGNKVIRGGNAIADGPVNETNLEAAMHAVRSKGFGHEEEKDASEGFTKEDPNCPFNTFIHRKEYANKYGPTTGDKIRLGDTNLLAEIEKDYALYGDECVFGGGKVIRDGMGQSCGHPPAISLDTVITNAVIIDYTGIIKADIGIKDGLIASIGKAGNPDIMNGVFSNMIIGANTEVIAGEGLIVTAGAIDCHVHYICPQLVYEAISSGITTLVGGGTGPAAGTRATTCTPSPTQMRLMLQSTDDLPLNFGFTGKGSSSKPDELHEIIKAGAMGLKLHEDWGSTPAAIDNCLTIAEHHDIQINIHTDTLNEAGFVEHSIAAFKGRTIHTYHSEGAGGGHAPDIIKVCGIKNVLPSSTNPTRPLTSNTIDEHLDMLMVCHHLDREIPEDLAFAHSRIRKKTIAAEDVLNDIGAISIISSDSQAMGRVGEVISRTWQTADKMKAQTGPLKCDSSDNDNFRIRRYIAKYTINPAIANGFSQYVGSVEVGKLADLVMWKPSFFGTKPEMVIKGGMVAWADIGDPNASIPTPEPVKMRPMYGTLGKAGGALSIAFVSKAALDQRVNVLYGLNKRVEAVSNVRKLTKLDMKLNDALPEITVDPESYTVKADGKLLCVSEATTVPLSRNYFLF

As for `NC(N)=S` [Thiourea, thiourea], in assay [1] (concentration not given), the “% inhibition” value was 92.3%. Besides, in assay [1] (read-out: IC50 (μM), mean ± SEM, triplicate, mean ± SEM), the half-inhibitory concentration (IC50) is 22.6 ± 0.23 µM. The Mode of inhibition entry in assay [2] (Lineweaver–Burk plots, inhibitor 0–20 μM, urea 0.5–4.0 mM) was “Competitive”. In addition, the Ki in assay [2] (calculated from secondary replot (Lineweaver–Burk)) is 18.2 µM. Further, the “Vmax (app)” value in assay [2] (maximum velocity of enzymatic activity at 20 μM inhibitor concentration) is 18.61 µM/min.
